Measured values taken from patent EP4752140A1, “SPIROCYCLICALKENYL OR AZAALKENYL COMPOUND, AND PHARMACEUTICAL COMPOSITION THEREOF, PREPARATION METHOD THEREFOR AND USE THEREOF” (Shanghai Meiyue Biotech Development Co., Ltd., priority 2023, dated 2025).
pIC50: −log10 of the molar value. Each block holds one molecule with its values, some of them ahead of it.

How the values were obtained:
normal human serum (NHS) = experiment: Complement-mediated hemolytic activity assay; assay type: cell-based; conditions: Erythrocyte, lysis of rabbit erythrocytes (RE) by NHS, GVB0 buffer with 10 mM Mg-EGTA, 37°C, read-out: Hemolysis IC50
Method: The hemolysis assay was performed with reference to the method described in Xuan Yuan et al., Haematologica. (2017) 102: 466-475. Prior to the assay, the optimal concentration of normal human serum (NHS) required to achieve 100% lysis of rabbit erythrocytes (RE) was determined by titration. In this assay, NHS (collected from healthy volunteers) was diluted in GVB^0 buffer containing 10 mM Mg-EGTA (0.1% gelatin, 5 mM Veronal, 145 mM NaCl, 0.025% NaN3, pH 7.3, Complement Technology) and incubated with various concentrations of test compounds at 37°C for 15 minutes. RE (collected from healthy Japanese white rabbits), freshly suspended in GVB^0 buffer containing 10 mM Mg-EGTA, were then added to achieve a final concentration of 1 × 10^8 cells/mL and incubated at 37°C for 30 minutes. The positive control group (100% lysis) consisted of GVB^0 buffer containing 10 mM Mg-EGTA with NHS and RE but without test compounds. The negative control group (0% lysis) consisted of GVB^0 buffer containing 10 mM Mg-EGTA with inactivated NHS (heated at 56°C for 30 minutes or 65°C for 5 minutes) and RE but without test compounds. After centrifugation of the samples at 2000 g for 5 minutes, the supernatant was collected. Absorbance at 415 nm (A415) was measured using a microplate reader (Molecular Devices, SpectraMax i3X). IC50 values were calculated by nonlinear regression from the percentage of hemolysis as a function of test compound concentration.

[1] = Single-dose PK study in rats; assay type: in vivo; conditions: male SD rats, oral gavage 3 mg/kg, plasma; for half-life: read-out: Half-life T1/2 (converted); for Cmax: read-out: Maximum plasma concentration Cmax
Method: (§1) Male SD rats (Shanghai Bikai Keyi Biotechnology Co. Ltd.) aged 6 to 9 weeks were fasted overnight. Three […] per group were administered the test compounds by oral gavage at a dosing volume of 10 mL/kg. Blood samples (0.2 mL per time point) were collected via the jugular vein into EDTA-K2 anticoagulant tubes and immediately centrifuged at 4000 rpm for 5 minutes at 4°C. The supernatants were collected. Blood samples were collected at the following time points: 15 minutes, 30 minutes, 1 hour, 2 hours, 4 hours, 7 hours, and 24 hours. The animals were continuously monitored for general condition after dosing. After completion of blood collection at all time points, the animals were euthanized. Plasma samples were analyzed by LC-MS/MS, and pharmacokinetic parameters were calculated using WinNonlin software.

[2] = test system: Alternative Pathway of the Human Serum Complement System; experiment: Inhibitory effect on the alternative pathway of the human serum complement system (Wieslab kit); assay type: biochemical; conditions: complement activity, OD405, LPS-coated plate
Method: Test compounds were evaluated starting at a concentration of 10 µM, with 3-fold serial dilutions across 8 concentration points. The final concentration of DMSO was 0.1%, and all measurements were performed in duplicate. A vial of human serum (Complement Technology, NHS) was removed from a -80°C ultra-low temperature freezer and allowed to thaw completely on ice. […] The plate was gently mixed on a microplate thermoshaker and incubated at room temperature for 15 minutes. Subsequently, 100 µL of the above mixture was carefully transferred to the pre-coated (LPS-containing) plate provided in the kit (WIESLAB® Complement System Alternative Pathway, AP330RUO). Additionally, 100 µL of Diluent AP was used as a blank control to avoid bubble formation. The plate was incubated at 37°C for 65 minutes. After incubation, the liquid in the wells was discarded, and the plate was washed with 1× wash buffer (300 µL/well) four times, with the liquid being removed as thoroughly as possible from the plate after the final wash. 100 µL of conjugate was added to each well, and the plate was incubated at room temperature (20 to 25°C) for 30 minutes, followed by repetition of the washing step. 100 µL of substrate solution was then added to each well, and the plate was incubated at room temperature (20 to 25°C) for 30 minutes in the dark. The OD405 value was read immediately, or the reaction was terminated by addition of 5 mM EDTA, and the OD405 value was read within 60 minutes. Complement activity was calculated according to the formula: % complement activity = (Sample - NC) / (PC - NC) × 100, and data analysis was performed.

[3] = Single-dose PK study in mice; conditions: mouse, in vivo, male ICR mice, oral gavage 10 mg/kg, plasma
Method: as §1, with “ICR mice” for “SD rats”, “Co.,” for “Co.”, “weighing approximately 25 g” for “aged 6 to 9 weeks”, “(30 µL” for “(0.2 mL”, “orbital sinus” for “jugular vein”

[4] = rat, in vivo, read-out: Area under the curve AUC0-24h
[5] = rat, read-out: Area under the curve AUC0-24h

Structure (SMILES): COc1cc(C)c2[nH]ccc2c1CN1CC[C@H](C=C2CC2)C[C@H]1c1ccc(C(=O)O)cc1 [Compound 41-P1]
pIC50 (normal human serum (NHS)): 7.46

Structure (SMILES): COc1cc([C@@H]2C[C@@H](C=C(F)F)CCN2Cc2c(OC)cc(C)c3[nH]ccc23)ccc1C(=O)O [Compound 36-P1]
pIC50 (normal human serum (NHS)): 7.36 | AUC(0-t) at 24 h [1, 4]: 4500 ng·h/mL | half-life ([1]; rat, in vivo): 8.29 h | Cmax ([1]; rat, in vivo): 667 ng/mL

Structure (SMILES): CCO[C@H]1CCN(Cc2c(OC)cc(C)c3[nH]ccc23)[C@H](c2ccc(C(=O)O)cc2)C1 [Comparative Example 1, reference compound]
Clearance CL [1]: 13.549 mL/min/kg | AUC(0-t) [1, 5]: 3660 ng·h/mL | half-life ([1]; rat): 3.38 h | Cmax ([1]; rat): 714 ng/mL

Structure (SMILES): Cc1cc(C2CC2)c(CN2CC[C@H](C=C(F)F)C[C@H]2c2ccc(C(=O)O)cc2)c2cc[nH]c12 [Compound 60-P1]
pIC50 (normal human serum (NHS)): 6.94

Structure (SMILES): Cc1cc(C)c2[nH]ccc2c1CN1CC[C@H](C=C(F)F)C[C@H]1c1ccc(C(=O)O)cc1 [Compound 37-P1]
pIC50 (normal human serum (NHS)): 7.68

Structure (SMILES): COc1cc(C)c2[nH]ccc2c1CN1CC[C@H](C=C(F)F)C[C@H]1c1ccc(C(=O)O)cc1 [Compound 32-P1]
pIC50 (normal human serum (NHS)): 7.03 | pIC50 [2]: 7.33 | AUC(0-t) at 24 h [1, 5]: 17600 ng·h/mL | half-life ([1]; rat): 13.2 h | Cmax ([1]; rat): 1290 ng/mL

Structure (SMILES): COc1cc(C)c2[nH]ccc2c1CN1CCC2(CC(=C(F)F)C2)C[C@H]1c1ccc(C(=O)O)cc1 (some centres unmarked) [Compound 1]
pIC50 (normal human serum (NHS)): 7.06 | pIC50 [2]: 7.27 | AUC(0-t) at 24 h ([3]; read-out: Area under the curve AUC0-24h): 9230 ng·h/mL | half-life ([3]; read-out: Half-life T1/2 (converted)): 13.1 h | Cmax ([3]; read-out: Maximum plasma concentration Cmax): 1530 ng/mL | AUC(0-t) at 24 h [1, 4]: 8320 ng·h/mL | half-life ([1]; rat, in vivo): 11.3 h | Cmax ([1]; rat, in vivo): 720 ng/mL

Structure (SMILES): COc1cc(C)c2[nH]ccc2c1CN1CC[C@H](C=C(F)F)C[C@H]1c1ccc(C(=O)O)c(O)c1 [Compound 40-P1]
pIC50 (normal human serum (NHS)): 7.66

pIC50 [2]: 7.30 | AUC(0-t) at 24 h [1, 4]: 10700 ng·h/mL | half-life ([1]; rat, in vivo): 11.2 h | Cmax ([1]; rat, in vivo): 1240 ng/mL
Structure (SMILES): COc1cc(C)c2[nH]ccc2c1CN1CC[C@H](C=C(F)F)C[C@H]1c1ccc(C(=O)O)cc1C (single isomer, unassigned) [Compound 33-P1]
pIC50 (normal human serum (NHS)): 7.08

Structure (SMILES): COc1cc(C)c2[nH]ccc2c1CN1CCC(C=C(F)F)C[C@H]1c1ccc(C(=O)O)cc1Cl (some centres unmarked) [Compound 34-1]
pIC50 (normal human serum (NHS)): 7.21

Structure (SMILES): COc1cc(Cl)c2[nH]ccc2c1CN1CC[C@H](C=C(F)F)C[C@H]1c1ccc(C(=O)O)cc1 [Compound 38-P1]
pIC50 (normal human serum (NHS)): 6.86

Structure (SMILES): [2H]C([2H])([2H])Oc1cc(C)c2[nH]ccc2c1CN1CC[C@H](C=C(F)F)C[C@H]1c1ccc(C(=O)O)cc1 [Compound 39-P1]
pIC50 (normal human serum (NHS)): 6.95 | AUC(0-t) at 24 h [1, 5]: 13300 ng·h/mL | half-life ([1]; rat): 9.44 h | Cmax ([1]; rat): 1280 ng/mL

Structure (SMILES): COc1cc(C)c2[nH]ccc2c1CN1CC[C@H](C=C(F)F)C[C@H]1c1ccc(C(=O)O)c(Cl)c1 [Compound 35-P1]
pIC50 (normal human serum (NHS)): 7.21

Structure (SMILES): COc1cc(C)c2[nH]ccc2c1CN1CCC(=C(F)F)C[C@H]1c1ccc(C(=O)O)cc1 [Compound 19]
pIC50 (normal human serum (NHS)): 5.55
